# US20220073475A1, “5-MEMBERED HETEROARYL COMPOUNDS CONTAINING A HYDROXAMATE MOIETY AND THEIR USE” (UNIVERSITE DE LILLE, priority 2019, published 2022)
# Tested on: OPM2 cells
# Test: CFZ potency increase, ratio of CC50 of CFZ alone / with compound
# Type: cell-based, human
# Details: OPM2, compound at 7.5 μM (Table 5)
# Text: Human multiple myeloma cells OPM2 (ACC 50, DSMZ) are maintained at 0.3-0.7 10^6 cells/mL in RPMI1640 medium supplemented with GlutaMAX™, 10% fetal bovine serum and 1% penicillin-streptomycin.
# We developed a cell-based, high content assay allowing the rapid detection and quantification of apoptotic cells. Caspase-3/7 activity was detected in real-time using the NucView™ 488 Caspase-3 substrate (Biotium), where the caspase-3/7 substrate peptide sequence DEVD is attached to a nucleic acid dye. The NucView™ 488 reagent crosses the plasma membrane to enter the cytoplasm, where the dye is unable to bind to DNA and remains non-fluorescent. Once the substrate has been cleaved by activated caspase-3/7 in apoptotic cells, the high-affinity DNA dye is released and migrates to the cell nucleus to stain the nucleus with a bright green fluorescence. All cell nuclei were also labeled with Hoechst 33342 (Ozyme).
# For OPM2, briefly, nanoliters of compound and cytotoxic agent in DMSO stock solutions were first transferred and combined in 384-microtiter well plate using an Echo555 liquid handler (Labcyte). The exact volume of each solution to be transferred was calculated to achieve subsequently the target concentration in the 70 μL volume incubate. Final DMSO content was maintained at 0.2%. Then, 70 μL of cells treated with 1 μM NucView™ 488 and 20 ng/mL Hoechst 33342 were distributed to the plates to obtain a final density of 12,000 cells per well. The microplates were incubated at 37° C. and 5% CO2 in an automated LiCONiC STR240 UB cell incubator, and images were acquired at various times at 405 nm and 488 nm with the high-resolution automated confocal microscope INCell 6000 (GE). Four fields per well were read with the 20× objective in a confocal mode. The BioCel workstation was managed by VWorks automation control software
# For all cells, Columbus software (Perkin) was used for image quantification and analysis. First, Hoechst 33342 staining was used for an automated detection of nuclei, in which the mean fluorescence intensity for NucView™ 488 was quantified. Inspection of control cells at initial time was used to set a threshold level of NucView™ 488 fluorescence to separate non apoptotic cells from apoptotic cells. Finally, for each well, the result was expressed as percentage of apoptotic cells in the total cell population. CC50 values were calculated from concentration-response curves by a nonlinear regression analysis at four parameters using Excel Fit or GraphPad Prim softwares.
# Activity=(% of apoptotic cells with cytotoxic agent in combination with compound of the invention)/(% of apoptotic cells with cytotoxic agent alone). • Ratio of CC50: The CC50 of the cytotoxic agent was calculated in absence and in presence of a compound of the invention.
# Activity=(CC50 of agent alone)/(CC50 of agent with compound). • Ratio of AUC. Activity=(Area of the dose-concentration curve of cytotoxic agent combined with one concentration of compound)/(Area of the dose-concentration curve of cytotoxic agent alone). (Lehar J. et al, 2008 (molecular systems biology 4:215)).
row,Structure (SMILES),Activity: ratio (CC50 of CFZ alone)/(CC50 of CFZ in combination with compound of the invention)
1,"O=C(C[C@@H](Cc1ccc2ccccc2c1)n1cc(CNC(=O)c2cccc(F)c2)nn1)NO [Compound 184, (R)-3-fluoro-N-((1-(4-(hydroxyamino)-1-(naphthalen-2-yl)-4-oxobutan-2-yl)-1H-1,2,3-triazol-4-yl)methyl)benzamide]",2.4
2,CN(Cc1cn([C@@H](CC(=O)NO)Cc2ccc3ccccc3c2)nn1)C(=O)c1ccc(F)c(F)c1 [Compound 87],1.7
3,"O=C(C[C@@H](Cc1ccc2ccccc2c1)n1nncc1CNC(=O)CCc1ccccc1)NO [Compound 25, (R)—N-hydroxy-4-naphthalen-2-yl-3-{5-[(3-phenyl-propionylamino)-methyl]-[1,2,3]-triazol-1-yl}-butyramide]",1.4
4,"O=C(C[C@@H](Cc1ccc2cc[nH]c2c1)n1cc(CNC(=O)c2ccc(F)cc2)nn1)NO [Compound 176, (R)-4-fluoro-N-((1-(4-(hydroxyamino)-1-(1H-indol-6-yl)-4-oxobutan-2-yl)-1H-1,2,3-triazol-4-yl)methyl)benzamide]",1.3
5,"CN(Cc1cn([C@@H](CC(=O)NO)Cc2ccc3ccccc3c2)nn1)C(=O)c1ccc(F)cc1 [Compound 185, (R)-4-fluoro-N-((1-(4-(hydroxyamino)-1-(naphthalen-2-yl)-4-oxobutan-2-yl)-1H-1,2,3-triazol-4-yl)methyl)-N-methylbenzamide]",1.8
6,"O=C(C[C@@H](Cc1ccc2ccccc2c1)n1nncc1CNC(=O)C1CCCCC1)NO [Compound 13, (R)-Cyclohexanecarboxylic acid [3-(1-hydroxycarbamoylmethyl-2-naphthalen-2-yl-ethyl)-3H-[1,2,3]triazol-4-ylmethyl]-amide]",1.2
7,"O=C(C[C@@H](Cc1ccc2c(c1)OCCO2)n1cc(CNC(=O)c2ccc(F)c(F)c2)nn1)NO [Compound 183, (R)—N-((1-(1-(2,3-dihydrobenzo[b][1,4]dioxin-6-yl)-4-(hydroxyamino)-4-oxobutan-2-yl)-1H-1,2,3-triazol-4-yl)methyl)-3,4-difluorobenzamide]",1.2
8,"O=C(CC(Cc1ccc2ccccc2c1)c1nc(CNC(=O)c2ccccc2)no1)NO (centres unmarked) [Compound 28, N-[5-(1-hydroxycarbamoylmethyl-2-naphthalen-2-yl-ethyl)-[1,2,4]oxadiazol-3-ylmethyl]-benzamide]",2.0
9,"O=C(C[C@@H](Cc1ccc2sccc2c1)n1cc(CNC(=O)c2ccc(F)cc2)nn1)NO [Compound 173, (R)—N-((1-(1-(benzo[b]thiophen-5-yl)-4-(hydroxyamino)-4-oxobutan-2-yl)-1H-1,2,3-triazol-4-yl)methyl)-4-fluorobenzamide]",2.1
10,"CC(NC(=O)c1ccc(F)c(F)c1)c1cn([C@@H](CC(=O)NO)Cc2ccc3ccccc3c2)nn1 (stereo in doubt) [Compound 78, 3,4-difluoro-N-[1-[1-[3-(hydroxyamino)-1-(2-naphthylmethyl)-3-oxo-propyl]triazol-4-yl]ethyl]benzamide]",2.0
11,"Cn1ccc2cc(C[C@H](CC(=O)NO)n3cc(CNC(=O)c4ccc(F)cc4)nn3)ccc21 [Compound 177, (R)-4-fluoro-N-((1-(4-(hydroxyamino)-1-(1-methyl-1H-indol-5-yl)-4-oxobutan-2-yl)-1H-1,2,3-triazol-4-yl)methyl)benzamide]",1.7
12,"O=C(C[C@@H](Cc1csc2ccccc12)n1cc(CNC(=O)c2ccc(F)c(F)c2)nn1)NO [Compound 179, (R)—N-((1-(1-(benzo[b]thiophen-3-yl)-4-(hydroxyamino)-4-oxobutan-2-yl)-1H-1,2,3-triazol-4-yl)methyl)-3,4-difluorobenzamide]",1.6
13,"O=C(C[C@@H](Cc1ccc2c(c1)CCC(=O)N2)n1cc(CNC(=O)c2ccc(F)c(F)c2)nn1)NO [Compound 171, (R)-3,4-difluoro-N-((1-(4-(hydroxyamino)-4-oxo-1-(2-oxo-1,2,3,4-tetrahydroquinolin-6-yl)butan-2-yl)-1H-1,2,3-triazol-4-yl)methyl)benzamide]",1.2
14,"CC(NC(=O)c1ccc(F)cc1)c1cn([C@@H](CC(=O)NO)Cc2ccc3ccccc3c2)nn1 (stereo partly drawn) [Compound 164, 4-fluoro-N-(1-(1-((R)-4-(hydroxyamino)-1-(naphthalen-2-yl)-4-oxobutan-2-yl)-1H-1,2,3-triazol-4-yl)ethyl)benzamide]",2.0
15,"CC(NC(=O)c1ccc(F)cc1)c1cn([C@@H](CC(=O)NO)Cc2csc3ccccc23)nn1 (stereo partly drawn) [Compound 181, N-(1-(1-((R)-1-(benzo[b]thiophen-3-yl)-4-(hydroxyamino)-4-oxobutan-2-yl)-1H-1,2,3-triazol-4-yl)ethyl)-4-fluorobenzamide]",1.9
16,"O=C(C[C@@H](Cc1cnc2ccccc2c1)n1cc(CNC(=O)c2ccc(F)c(F)c2)nn1)NO [Compound 143, (R)-3,4-difluoro-N-((1-(4-(hydroxyamino)-4-oxo-1-(quinolin-3-yl)butan-2-yl)-1H-1,2,3-triazol-4-yl)methyl)benzamide]",1.1
17,"O=C(C[C@@H](Cc1cc2ccccc2s1)n1cc(CNC(=O)c2ccc(F)cc2)nn1)NO [Compound 182, (S)—N-((1-(1-(benzo[b]thiophen-2-yl)-4-(hydroxyamino)-4-oxobutan-2-yl)-1H-1,2,3-triazol-4-yl)methyl)-4-fluorobenzamide]",2.7
18,"CC(C)CN(Cc1cn([C@@H](CC(=O)NO)Cc2c[nH]c3ccccc23)nn1)C(=O)c1ccc(F)c(F)c1 [Compound 98, 3,4-difluoro-N-[[1-[(1R)-3-(hydroxyamino)-1-(1H-indol-3-ylmethyl)-3-oxo-propyl]triazol-4-yl]methyl]-N-isobutyl-benzamide]",2.0
19,"COc1ccc2cc([C@H](C)C(=O)NCc3cnnn3[C@@H](CC(=O)NO)Cc3ccc4ccccc4c3)ccc2c1 [Compound 26, (R,S)—N-hydroxy-3-(5-{[2-(6-methoxy-naphthalen-2-yl)-propionylamino]-methyl}-[1,2,3]triazol-1-yl)-4-naphthalen-2-yl-butyramide]",1.8
20,"O=C(C[C@@H](Cc1ccc2ccccc2c1)n1cc([C@H](CO)NC(=O)c2ccc(F)c(F)c2)nn1)NO [Compound 96, 3,4-difluoro-N-[(1R)-2-hydroxy-1-[1-[(1R)-3-(hydroxyamino)-1-(2-naphthylmethyl)-3-oxo-propyl]triazol-4-yl]ethyl]benzamide]",1.4
21,"O=C(C[C@@H](Cc1c[nH]c2ccccc12)n1cc(C2COCCN2C(=O)c2ccc(F)c(F)c2)nn1)NO (stereo partly drawn) [Compound 90, (3R)-3-[4-[4-(3,4-difluorobenzoyl)morpholin-3-yl]triazol-1-yl]-4-(1H-indol-3-yl)butanehydroxamic acid]",1.4
22,"O=C(C[C@@H](Cc1ccc2ccccc2c1)n1cc(CNS(=O)(=O)c2ccc(F)cc2)nn1)NO [Compound 6, (R)-3-{4-[(4-Fluoro-benzenesulfonylamino)-methyl]-[1,2,3]triazol-1-yl}-N-hydroxy-4-naphthalen-2-yl-butyramide]",1.3
23,"O=C(C[C@@H](Cc1ccc2c(c1)CCCC2)n1cc(CNC(=O)c2ccc(F)cc2)nn1)NO [Compound 165, (R)-4-fluoro-N-((1-(4-(hydroxyamino)-4-oxo-1-(5,6,7,8-tetrahydronaphthalen-2-yl)butan-2-yl)-1H-1,2,3-triazol-4-yl)methyl)benzamide]",1.9
